For the test, the system named is neutrophil migration to peripheral blood. The test is described as follows: In vivo neutrophil migration to peripheral blood after injection. The following applies: mice, single subcutaneous dose of 5 mg/kg BL-8040 in 200 μl PBS, bled 2 hours after injection, flow cytometry of mature neutrophils, increase relative to control mice. The procedure: In some of any of the respective embodiments, promotion of in vivo neutrophil migration to peripheral blood is determined by subcutaneously injecting mice with 5 mg/kg of BL-8040 (SEQ ID NO: 1), reconstituted in 200 μl of PBS, then bleeding the mice 2 hours after injection (e.g., by cardiac puncture into tubes with heparin) and quantifying the number of mature neutrophils in the peripheral blood (e.g., by flow cytometry) relative to control (untreated) mice.
BL-8040 (SEQ ID NO: 1) is an antagonist of the CXCR4 chemokine receptor. The induction of the cellular activity mediated by CXCR4 is responsible for the attachment of white blood cells to the bone marrow stromal cells. Inhibition of the CXCR4 activity (e.g., by BL-8040 (SEQ ID NO: 1)) is therefore expected to induce the detachment of the white blood cells (which include but are not limited to neutrophils) from the bone marrow stroma, and the subsequent migration of the cells to the peripheral blood. […]
Mice were subcutaneously injected with a single dose of 5 mg/kg of BL-8040 (SEQ ID NO: 1), reconstituted in 200 μl of PBS. […] Flow cytometry was used to evaluate the number of mature neutrophils in the peripheral blood, and the increase relative to control mice was calculated.

Bridge positions count the residues as written; N and C are the ends. Square brackets hold non-standard residues; d marks the D form. * marks the point of attachment. 2Nal = N[C@@H](Cc1ccc2ccccc2c1)C(=O)O; Benzoyl(4-F) = O=C(c1ccc(F)cc1)*; Cit = NC(=O)NCCC[C@H](N)C(=O)O

With “Reference Example 1: BL-8040 prepared on Rink amide resin with HOBt/TBTU coupling and iodine cyclization; lacks the RRT 0.87 and 0.72 compounds ({Benzoyl(4-F)}-RR[2Nal]CY[Cit]K[dK]PYR[Cit]CR-NH2; disulfide 4-13 (inferred))”, the “Fold increase in neutrophil number” value is listed as 5.6.

These data come from patent US12268725B2, “Composition of BL-8040” (BioLineRx Ltd., priority 2020, dated 2025).
